ChEMBL document CHEMBL3822420, “New peptide deformylase inhibitors design, synthesis and pharmacokinetic assessment” (Bioorg Med Chem Lett, 2016)
Values after ≈ are worked out from the molar mass of the structure shown.

Key:
[1] = system: Staphylococcus aureus; test: Antibacterial activity against methicillin-sensitive Staphylococcus aureus 14-1; type: functional
[2] = system: Enterococcus faecalis; test: Antibacterial activity against Enterococcus faecalis 14-3; type: functional
[3] = system: Staphylococcus epidermidis; test: Antibacterial activity against methicillin-sensitive Staphylococcus epidermidis 14-1; type: functional
[4] = system: Escherichia coli; test: Antibacterial activity against Escherichia coli 14-1; type: functional
[5] = system: Staphylococcus aureus; test: Antibacterial activity against methicillin-sensitive Staphylococcus aureus 14-2; type: functional
[6] = system: Staphylococcus aureus; test: Antibacterial activity against methicillin-resistant Staphylococcus aureus 14-1; type: functional
[7] = system: Staphylococcus aureus; test: Antibacterial activity against methicillin-resistant Staphylococcus aureus 14-4; type: functional
[8] = system: Staphylococcus epidermidis; test: Antibacterial activity against methicillin-resistant Staphylococcus epidermidis 14-1; type: functional
[9] = system: Staphylococcus aureus; test: Antibacterial activity against methicillin-resistant Staphylococcus aureus 14-5; type: functional
[10] = system: Enterococcus faecalis; test: Antibacterial activity against Enterococcus faecalis 14-1; type: functional
[11] = system: Escherichia coli; test: Antibacterial activity against Escherichia coli 14-2 expressing extended-spectrum beta-lactamase; type: functional
[12] = system: Staphylococcus epidermidis; test: Antibacterial activity against methicillin-resistant Staphylococcus epidermidis 14-4; type: functional
[13] = system: Enterococcus faecalis; test: Antibacterial activity against Enterococcus faecalis 14-5; type: functional
[14] = system: Staphylococcus epidermidis; test: Antibacterial activity against methicillin-sensitive Staphylococcus epidermidis 14-3; type: functional
[15] = system: Staphylococcus aureus; test: Antibacterial activity against methicillin-resistant Staphylococcus aureus 14-2; type: functional
[16] = system: Escherichia coli; test: Antibacterial activity against Escherichia coli 14-1 expressing extended-spectrum beta-lactamase; type: functional
[17] = system: Escherichia coli; test: Antibacterial activity against Escherichia coli 14-2; type: functional
[18] = system: Staphylococcus epidermidis; test: Antibacterial activity against methicillin-sensitive Staphylococcus epidermidis 14-2; type: functional
[19] = system: Staphylococcus epidermidis; test: Antibacterial activity against methicillin-resistant Staphylococcus epidermidis 14-2; type: functional
[20] = system: Staphylococcus epidermidis; test: Antibacterial activity against methicillin-resistant Staphylococcus epidermidis 14-3; type: functional
[21] = system: Staphylococcus aureus; test: Antibacterial activity against methicillin-sensitive Staphylococcus aureus 14-3; type: functional
[22] = system: Enterococcus faecalis; test: Antibacterial activity against Enterococcus faecalis 14-2; type: functional
[23] = system: Staphylococcus aureus; test: Antibacterial activity against methicillin-sensitive Staphylococcus aureus 14-4; type: functional
[24] = Tmax in Sprague-Dawley rat at 10 mg/kg, po; type: ADME, organism-based; conditions: in vivo
[25] = Volume of distribution at steady state in Sprague-Dawley rat at 2 mg/kg, iv; type: ADME, organism-based; conditions: in vivo, read-out: Vdss
[26] = MRT (0 to t) in Sprague-Dawley rat at 2 mg/kg, iv; type: ADME, organism-based; conditions: in vivo
[27] = AUC (0 to t) in Sprague-Dawley rat at 2 mg/kg, iv; type: ADME, organism-based; conditions: Sprague-Dawley, in vivo
[28] = Clearance in Sprague-Dawley rat at 2 mg/kg, iv; type: ADME, organism-based; conditions: in vivo
[29] = Half life in Sprague-Dawley rat at 2 mg/kg, iv; type: ADME, organism-based; conditions: in vivo
[30] = Cmax in Sprague-Dawley rat at 2 mg/kg, iv; type: ADME, organism-based; set-up: dose 2 mg/kg, route intravenous; conditions: in vivo
[31] = system: Rattus norvegicus; test: Volume of distribution at steady state in Sprague-Dawley rat at 10 mg/kg, po; type: ADME, organism-based; conditions: in vivo
[32] = Tmax in Sprague-Dawley rat at 2 mg/kg, iv; type: ADME, organism-based; conditions: in vivo
[33] = Half life in Sprague-Dawley rat at 10 mg/kg, po; type: ADME, organism-based; conditions: Sprague-Dawley, in vivo
[34] = AUC (0 to t) in Sprague-Dawley rat at 10 mg/kg, po; type: ADME, organism-based; conditions: in vivo
[35] = AUC (0 to infinity) in Sprague-Dawley rat at 2 mg/kg, iv; type: ADME, organism-based; set-up: dose 2 mg/kg, route intravenous, time infinity; conditions: Sprague-Dawley, in vivo
[36] = MRT (0 to t) in Sprague-Dawley rat at 10 mg/kg, po; type: ADME, organism-based; conditions: in vivo
[37] = Oral bioavailability in Sprague-Dawley rat at 10 mg/kg; type: ADME, organism-based; conditions: in vivo
[38] = AUC (0 to infinity) in Sprague-Dawley rat at 10 mg/kg, po; type: ADME, organism-based; set-up: dose 10 mg/kg, time infinity, route oral; conditions: Sprague-Dawley, in vivo
[39] = Cmax in Sprague-Dawley rat at 10 mg/kg, po; type: ADME, organism-based; set-up: dose 10 mg/kg, route oral; conditions: in vivo
[40] = Clearance in Sprague-Dawley rat at 10 mg/kg, po; type: ADME, organism-based; conditions: Sprague-Dawley, in vivo

Structure (SMILES) | MIC [1] [µg/mL] | MIC [2] [µg/mL] | MIC [3] [µg/mL] | MIC [4] [µg/mL] | MIC [5] [µg/mL] | MIC [6] [µg/mL] | MIC [7] [µg/mL] | MIC [8] [µg/mL] | MIC [9] [µg/mL] | MIC [10] [µg/mL] | MIC [11] [µg/mL] | MIC [12] [µg/mL] | MIC [13] [µg/mL] | MIC [14] [µg/mL] | MIC [15] [µg/mL] | MIC [16] [µg/mL] | MIC [17] [µg/mL] | MIC [18] [µg/mL] | MIC [19] [µg/mL] | MIC [20] [µg/mL] | other results
CCCC[C@H](CN(O)C=O)C(=O)N1CCC[C@H]1C(=O)Nc1ccc(F)c[n+]1[O-] | 0.5 (≈ 1.26 µM) | 2 (≈ 5.05 µM) | 0.06 (≈ 0.151 µM) | 64 (≈ 161 µM) | 0.5 (≈ 1.26 µM) | 1 (≈ 2.52 µM) | 1 (≈ 2.52 µM) | 0.125 (≈ 0.315 µM) | 0.5 (≈ 1.26 µM) | 2 (≈ 5.05 µM) | 64 (≈ 161 µM) | 0.125 (≈ 0.315 µM) | 128 (≈ 323 µM) | 0.06 (≈ 0.151 µM) | 1 (≈ 2.52 µM) | 1 (≈ 2.52 µM) | 64 (≈ 161 µM) | 0.5 (≈ 1.26 µM) | 0.125 (≈ 0.315 µM) | 0.06 (≈ 0.151 µM) | MIC [21]: 0.5 µg/mL (≈ 1.26 µM); MIC [22]: 2 µg/mL (≈ 5.05 µM); MIC [23]: 0.5 µg/mL (≈ 1.26 µM)
CCCC[C@H](CN(O)C=O)C(=O)N1CC2(CC2)C[C@H]1C(=O)Nc1ccc(F)c[n+]1[O-] | 0.125 (≈ 0.296 µM) | 0.5 (≈ 1.18 µM) | 0.03 (≈ 0.071 µM) | 128 (≈ 303 µM) | 0.125 (≈ 0.296 µM) | 0.25 (≈ 0.592 µM) | 0.125 (≈ 0.296 µM) | 0.03 (≈ 0.071 µM) | 0.125 (≈ 0.296 µM) | 0.25 (≈ 0.592 µM) | 64 (≈ 151 µM) | 0.125 (≈ 0.296 µM) | 128 (≈ 303 µM) | 0.03 (≈ 0.071 µM) | 0.25 (≈ 0.592 µM) | 1 (≈ 2.37 µM) | 64 (≈ 151 µM) | 0.125 (≈ 0.296 µM) | 0.06 (≈ 0.142 µM) | 0.03 (≈ 0.071 µM) | Tmax [24]: 0.25 h; Vd [25]: 2.6 L/kg; MRT last [26]: 1.65 h; AUC(0-t) [27]: 1260 ng·h/mL; clearance [28]: 26.2 mL/min/kg; half-life [29]: 3.63 h; Cmax [30]: 1780 ng/mL; Vdss [31]: 39.4 L/kg; Tmax [32]: 8.4 min; half-life [33]: 4.94 h; AUC(0-t) [34]: 1960 ng·h/mL; AUC(0-inf) [35]: 1280 ng·h/mL; MRT last [36]: 2.04 h; bioavailability [37]: 31%; MIC [21]: 0.125 µg/mL (≈ 0.296 µM); MIC [22]: 0.5 µg/mL (≈ 1.18 µM); AUC(0-inf) [38]: 1990 ng·h/mL; Cmax [39]: 1850 ng/mL; MIC [23]: 0.125 µg/mL (≈ 0.296 µM); CL/F [40]: 91.3 mL/min/kg
CCCC[C@H](CN(O)C=O)C(=O)N1CC2(CC2)C[C@H]1c1nnc2ccccn12 | 1 (≈ 2.59 µM) | 8 (≈ 20.8 µM) | 0.25 (≈ 0.649 µM) | 128 (≈ 332 µM) | 1 (≈ 2.59 µM) | 1 (≈ 2.59 µM) | 1 (≈ 2.59 µM) | 0.5 (≈ 1.3 µM) | 1 (≈ 2.59 µM) | 4 (≈ 10.4 µM) | 128 (≈ 332 µM) | 1 (≈ 2.59 µM) | 8 (≈ 20.8 µM) | 0.5 (≈ 1.3 µM) | 1 (≈ 2.59 µM) | 2 (≈ 5.19 µM) | 128 (≈ 332 µM) | 0.5 (≈ 1.3 µM) | 0.5 (≈ 1.3 µM) | 0.25 (≈ 0.649 µM) | MIC [21]: 1 µg/mL (≈ 2.59 µM); MIC [22]: 8 µg/mL (≈ 20.8 µM); MIC [23]: 1 µg/mL (≈ 2.59 µM)
